Data: the supplement of paper PMC10307832

Columns and labels:
Experiment in all cases: relative viability (nuclei count vs DMSO), 5 days (fraction); higher = more cells survive
Pazopanib + Luminespib = compound: Cc1ccc(Nc2nccc(N(C)c3ccc4c(C)n(C)nc4c3)n2)cc1S(N)(=O)=O [Pazopanib] + CCNC(=O)c1noc(-c2cc(C(C)C)c(O)cc2O)c1-c1ccc(CN2CCOCC2)cc1 [Luminespib] (partner 0.01 µM)
How it was run: (§1)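 One day after seeding in 1536-well plates, lung cancer cell lines were dosed by pin tool. Dosing was either single-drug or a fixed anchor-drug dose plus five library-drug doses (not always all listed) in √10 steps. After 5 days, nuclei were stained in one fix-and-stain step and counted on 4× images, and relative viability is the nuclei count of treated wells over that of vehicle wells, given as the median of duplicate plates.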

Pazopanib + Dasatinib = compound: Cc1ccc(Nc2nccc(N(C)c3ccc4c(C)n(C)nc4c3)n2)cc1S(N)(=O)=O [Pazopanib] + Cc1nc(Nc2ncc(C(=O)Nc3c(C)cccc3Cl)s2)cc(N2CCN(CCO)CC2)n1 [Dasatinib] (partner 0.075 µM)
How it was run: as §1

Ponatinib + Lapatinib = compound: Cc1ccc(C(=O)Nc2ccc(CN3CCN(C)CC3)c(C(F)(F)F)c2)cc1C#Cc1cnc2cccnn12 [Ponatinib] + CS(=O)(=O)CCNCc1ccc(-c2ccc3ncnc(Nc4ccc(OCc5cccc(F)c5)c(Cl)c4)c3c2)o1 [Lapatinib] (partner 2 µM)
How it was run: as §1

Ponatinib + Navitoclax = compound: Cc1ccc(C(=O)Nc2ccc(CN3CCN(C)CC3)c(C(F)(F)F)c2)cc1C#Cc1cnc2cccnn12 [Ponatinib] + CC1(C)CCC(c2ccc(Cl)cc2)=C(CN2CCN(c3ccc(C(=O)NS(=O)(=O)c4ccc(N[C@H](CCN5CCOCC5)CSc5ccccc5)c(S(=O)(=O)C(F)(F)F)c4)cc3)CC2)C1 [Navitoclax] (partner 0.5 µM)
How it was run: as §1

Cell Line | relative viability (Pazopanib + Luminespib; first compound 0.01 µM) | relative viability (Pazopanib + Luminespib; first compound 0.03162 µM) | relative viability (Pazopanib + Luminespib; first compound 0.1 µM) | relative viability (Pazopanib + Luminespib; first compound 0.3162 µM) | relative viability (Pazopanib + Luminespib; first compound 1 µM) | relative viability (Pazopanib + Dasatinib; first compound 0.01 µM) | relative viability (Pazopanib + Dasatinib; first compound 0.03162 µM) | relative viability (Pazopanib + Dasatinib; first compound 0.1 µM) | relative viability (Pazopanib + Dasatinib; first compound 0.3162 µM) | relative viability (Pazopanib + Dasatinib; first compound 1 µM) | relative viability (Ponatinib + Lapatinib; first compound 0.002 µM) | relative viability (Ponatinib + Lapatinib; first compound 0.006325 µM) | relative viability (Ponatinib + Lapatinib; first compound 0.06325 µM) | relative viability (Ponatinib + Lapatinib; first compound 0.2 µM) | relative viability (Ponatinib + Navitoclax; first compound 0.002 µM) | relative viability (Ponatinib + Navitoclax; first compound 0.006325 µM) | relative viability (Ponatinib + Navitoclax; first compound 0.06325 µM) | relative viability (Ponatinib + Navitoclax; first compound 0.2 µM)
NCI-H1734 | 0.18 | 0.207 | 0.182 | 0.179 | 0.208 | 0.387 | 0.471 | 0.458 | 0.459 | 0.478 | 0.955 | 0.991 | 1.09 | 0.888 | 0.805 | 0.828 | 0.877 | 0.739
NCI-H2126 | 0.93 | 0.928 | 0.903 | 0.846 | 0.946 | 0.528 | 0.528 | 0.607 | 0.594 | 0.615 | 0.729 | 0.766 | 0.888 | 0.718 | 0.823 | 0.871 | 0.963 | 0.848
EMC-BAC-2 | – | 1.2 | 1.16 | 1.14 | 1.25 | – | 0.381 | 0.308 | 0.305 | 0.312 | 0.797 | 0.852 | 0.918 | 0.806 | 1.06 | 1.07 | 1.19 | 1.11
NCI-H1993 | – | 0.728 | 0.885 | 0.885 | 0.913 | – | 0.6 | 0.542 | 0.588 | 0.582 | 0.885 | 0.78 | 0.872 | 0.872 | 0.881 | 1.07 | 1.25 | 0.943
NCI-H596 | – | 1.05 | 1.02 | 0.908 | 1.19 | – | 0.617 | 0.454 | 0.6 | 0.575 | 1.09 | 0.898 | 0.905 | 0.748 | 0.845 | 0.969 | 1.03 | 0.733
